From ChEMBL document CHEMBL2390885, “Discovery of pyrido[2,3-d]pyrimidine-based inhibitors of HCV NS5A” (Bioorg Med Chem Lett, 2013)
In brackets after ≈: the same amount, converted by molar mass. Activity calls are given as the source filed them. No cut-off for these calls is given here.

What was measured:
Hepatitis C virus [1] = test: Antiviral activity against Hepatitis C virus genotype 1b by replicon assay; type: functional, organism-based, Hepacivirus hominis
Hepatitis C virus [2] = test: Antiviral activity against Hepatitis C virus genotype 1a by replicon assay; type: functional, organism-based, Hepacivirus hominis; details: subtype 1a
[3] = AUC in Sprague-Dawley rat at 5 mg/kg, po; type: ADME, organism-based; parameters: dose 5 mg/kg, route oral; details: plasma
[4] = Oral bioavailability in Sprague-Dawley rat at 5 mg/kg; type: ADME, organism-based; details: in vivo
[5] = Half life in Sprague-Dawley rat at 5 mg/kg, po; type: ADME, organism-based; parameters: dose 5 mg/kg, route oral; details: in vivo
[6] = Cmax in Sprague-Dawley rat at 5 mg/kg, po; type: ADME, organism-based; parameters: dose 5 mg/kg, route oral; details: in vivo
[7] = Half life in Sprague-Dawley rat at 5 mg/kg, iv; type: ADME, organism-based; parameters: dose 5 mg/kg, route intravenous; details: in vivo
[8] = Clearance in Sprague-Dawley rat at 5 mg/kg, iv; type: ADME, organism-based; parameters: dose 5 mg/kg, route intravenous; details: in vivo
Hepatitis C virus [9] = test: Antiviral activity against Hepatitis C virus genotype 1b harboring NS5A Y93C/K26R double mutant infected in chimpanzee assessed as reduction in viral load at 2.5 mg/kg, iv administered every 8 hrs measured after 32 hrs; type: functional, organism-based; parameters: dose 2.5 mg/kg; details: Hepacivirus hominis
Hepatitis C virus [10] = test: Antiviral activity against Hepatitis C virus genotype 1b harboring NS5A L28M mutant infected in chimpanzee assessed as reduction in viral load at 2.5 mg/kg, iv administered every 8 hrs measured after 32 hrs; type: functional, organism-based; parameters: dose 2.5 mg/kg; details: Hepacivirus hominis
Hepatitis C virus [11] = test: Antiviral activity against Hepatitis C virus genotype 1b harboring NS5A Q24R/K26R double mutant infected in chimpanzee assessed as reduction in viral load at 2.5 mg/kg, iv administered every 8 hrs measured after 32 hrs; type: functional, organism-based; parameters: dose 2.5 mg/kg; details: Hepacivirus hominis
Hepatitis C virus [12] = test: Antiviral activity against Hepatitis C virus genotype 1b harboring NS5A K26R mutant infected in chimpanzee assessed as reduction in viral load at 2.5 mg/kg, iv administered every 8 hrs measured after 32 hrs; type: functional, organism-based; parameters: dose 2.5 mg/kg; details: Hepacivirus hominis
[13] = Solubility in aqueous buffer; type: physicochemical
[14] = Half life in iv dosed chimpanzee; type: ADME, organism-based, Pan troglodytes; details: in vivo
Hepatitis C virus [15] = test: Antiviral activity against Hepatitis C virus genotype 1b infected in chimpanzee assessed as log reduction in viral load at 2.5 mg/kg, iv administered every 8 hrs measured after 32 hrs relative to control; type: functional, Hepacivirus hominis
Hepatitis C virus [16] = test: Antiviral activity against Hepatitis C virus genotype 1b by replicon assay in presence of human plasma; type: functional, organism-based, Hepacivirus hominis
[17] = Clearance in dog at 2.5 mg/kg, iv; type: ADME, organism-based, Canis lupus familiaris; parameters: dose 2.5 mg/kg, route intravenous; details: in vivo
[18] = Half life in dog at 2.5 mg/kg, iv; type: ADME, organism-based, Canis lupus familiaris; parameters: dose 2.5 mg/kg, route intravenous; details: in vivo
[19] = AUC in dog at 2.5 mg/kg, po; details: plasma
[20] = Cmax in dog at 2.5 mg/kg, po; details: in vivo
[21] = Half life in dog at 2.5 mg/kg, po; details: in vivo
[22] = Oral bioavailability in dog at 2.5 mg/kg; details: in vivo

| EC50 (Hepatitis C virus [1]) | EC50 (Hepatitis C virus [2]) | SMILES | also measured |
| --- | --- | --- | --- |
| 130 nM | 150 nM | CC(C)c1ccc2c(Nc3cc(C(=O)NCc4ccccc4)ccc3Sc3ccc(N)cc3)ncnc2n1 | – |
| 21 nM | 210 nM | CC(C)c1ccc2c(Nc3cc(C(=O)N[C@@H](C)c4cccc(C(F)(F)F)c4)ccc3Sc3ccc(N)cc3)ncnc2n1 | – |
| 4 nM | 16 nM | CC(C)c1ccc2c(Nc3cc(C(=O)N[C@@H](C)c4ccc(Br)cc4)ccc3Sc3ccc(N)cc3)ncnc2n1 | AUC [3]: 3840 ng·h/mL; bioavailability [4]: 24.9%; half-life [5]: 2 h; Cmax [6]: 330 ng/mL; half-life [7]: 1.9 h; clearance [8]: 5.67 mL/min/kg |
| 54 nM | 451 nM | CC(C)c1ccc2c(Nc3cc(C(=O)N[C@H]4CCc5ccccc54)ccc3Sc3ccc(N)cc3)ncnc2n1 | – |
| 100 nM | 180 nM | CC(C)c1ccc2c(Nc3cc(C(=O)N[C@H](C)c4ccccc4)ccc3Sc3ccc(N)cc3)ncnc2n1 | – |
| 52 nM | 89 nM | COc1ccc([C@H](C)NC(=O)c2ccc(Sc3ccc(N)cc3)c(Nc3ncnc4nc(C(C)C)ccc34)c2)cc1 | – |
| 13 nM | 16 nM | CC(C)c1ccc2c(Nc3cc(C(=O)N[C@@H]4CCc5ccccc54)ccc3Sc3ccc(N)cc3)ncnc2n1 | – |
| 127 nM | 266 nM | CC[C@@H](NC(=O)c1ccc(Sc2ccc(N)cc2)c(Nc2ncnc3nc(C(C)C)ccc23)c1)c1ccccc1 | – |
| 250 nM | 200 nM | C[C@H](NC(=O)c1ccc(Sc2ccc(N)cc2)c(Nc2ncnc3nc(C(F)(F)F)ccc23)c1)c1ccccc1 | – |
| 41 nM | 66 nM | CC(C)c1ccc2c(Nc3cc(C(=O)NC(C)c4ccc(C(F)(F)F)cc4)ccc3Sc3ccc(N)cc3)ncnc2n1 (configuration not stated) | – |
| 15 nM | 92 nM | CC(C)c1ccc2c(Nc3cc(C(=O)NC(C)c4cccc(F)c4)ccc3Sc3ccc(N)cc3)ncnc2n1 (configuration not stated) | – |
| 4 nM | 42 nM | COC(=O)Nc1ccc(Sc2ccc(C(=O)N[C@@H](C)c3ccccc3)cc2Nc2ncnc3nc(C(C)C)ccc23)cc1 | bioavailability [4]: 0%; half-life [7]: 0.4 h; clearance [8]: 12.8 mL/min/kg |
| 28 nM | 169 nM | CC(C)c1ccc2c(Nc3cc(C(=O)N[C@@H](C)c4ccccc4Br)ccc3Sc3ccc(N)cc3)ncnc2n1 | – |
| 2 nM | 13 nM | CC(C)c1ccc2c(Nc3cc(C(=O)N[C@H](c4ccccc4)C(F)(F)F)ccc3Sc3ccc(N)cc3)ncnc2n1 | AUC [3]: 3890 ng·h/mL; bioavailability [4]: 18.7%; half-life [5]: 1.8 h; Cmax [6]: 930 ng/mL; half-life [7]: 2.9 h; clearance [8]: 4 mL/min/kg |
| 10 nM | 100 nM | Cc1cccc(C(C)NC(=O)c2ccc(Sc3ccc(N)cc3)c(Nc3ncnc4nc(C(C)C)ccc34)c2)c1 (configuration not stated) | – |
| 40 nM | 610 nM | COc1ccccc1C(C)NC(=O)c1ccc(Sc2ccc(N)cc2)c(Nc2ncnc3nc(C(C)C)ccc23)c1 (configuration not stated) | – |
| 790 nM | 2310 nM | CC(C)c1ccc2c(Nc3cc(C(=O)N[C@@H](C)c4ccccc4)ccc3Oc3ccc(N)cc3)ncnc2n1 | – |
| 377 nM | 1420 nM | CC(C)c1ccc2c(Nc3cc(C(=O)NC(C)c4cccnc4)ccc3Sc3ccc(N)cc3)ncnc2n1 (configuration not stated) | – |
| 700 nM | 1070 nM | CC(C)c1ccc2c(Nc3cc(C(=O)NC4(c5ccccc5)CC4)ccc3Sc3ccc(N)cc3)ncnc2n1 | – |
| 45 nM | 240 nM | CC(C)c1ccc2c(Nc3cc(C(=O)N[C@@H](C)C4CCCCC4)ccc3Sc3ccc(N)cc3)ncnc2n1 | AUC [3]: 250 ng·h/mL; bioavailability [4]: 5%; half-life [5]: 0.8 h; Cmax [6]: 200 ng/mL; half-life [7]: 0.5 h; clearance [8]: 21.5 mL/min/kg |
| 20 nM | 370 nM | CC(C)c1ccc2c(Nc3cc(C(=O)N[C@@H](C)c4ccccc4C(F)(F)F)ccc3Sc3ccc(N)cc3)ncnc2n1 | – |
| 314 nM | 4570 nM | CC(C)c1ccc2c(Nc3cc(C(=O)N[C@@H](CO)c4ccccc4)ccc3Sc3ccc(N)cc3)ncnc2n1 | – |
| 347 nM | 3270 nM | CC(C)c1ccc2c(Nc3cc(C(=O)N[C@H](CCO)c4ccccc4)ccc3Sc3ccc(N)cc3)ncnc2n1 | – |

| EC50 (Hepatitis C virus [1]) | EC50 (Hepatitis C virus [2]) | SMILES | also measured |
| --- | --- | --- | --- |
| 149 nM | 5030 nM | CC(=O)Nc1ccc(Sc2ccc(C(=O)N[C@@H](C)c3ccccc3)cc2Nc2ncnc3nc(C(C)C)ccc23)cc1 | – |
| 7 nM | 45 nM | CC(C)c1ccc2c(Nc3cc(C(=O)N[C@@H](C)c4ccccc4)ccc3Sc3ccc(N)cc3)ncnc2n1 | solubility [13]: 5 µM (≈ 2.67 µg/mL); EC50 (Hepatitis C virus [16]): 1200 nM; AUC [3]: 6490 ng·h/mL; bioavailability [4]: 42.4%; half-life [5]: 2.7 h; Cmax [6]: 1480 ng/mL; clearance [17]: 4.33 mL/min/kg; half-life [7]: 1.6 h; clearance [8]: 5.5 mL/min/kg; half-life [18]: 3.2 h; AUC [19]: 2350 ng·h/mL; Cmax [20]: 490 ng/mL; half-life [21]: 3 h; bioavailability [22]: 18.8% |
| 5 nM | 22 nM | Cc1ccc([C@H](C)NC(=O)c2ccc(Sc3ccc(N)cc3)c(Nc3ncnc4nc(C(C)C)ccc34)c2)cc1 | AUC [3]: 600 ng·h/mL; bioavailability [4]: 12.2%; half-life [5]: 2.6 h; Cmax [6]: 160 ng/mL; half-life [7]: 0.7 h; clearance [8]: 18.3 mL/min/kg |
| 4 nM | 24 nM | COc1cccc([C@H](C)NC(=O)c2ccc(Sc3ccc(N)cc3)c(Nc3ncnc4nc(C(C)C)ccc34)c2)c1 | – |
| 30 nM | 340 nM | CC(C)c1ccc2c(Nc3cc(C(=O)N[C@@H](C)c4ccc5ccccc5c4)ccc3Sc3ccc(N)cc3)ncnc2n1 | – |
| 60 nM | 1200 nM | CC(C)c1ccc2c(Nc3cc(C(=O)N[C@](C)(CO)c4ccccc4)ccc3Sc3ccc(N)cc3)ncnc2n1 | – |
| 9 nM | 33 nM | CC(C)c1ccc2c(Nc3cc(C(=O)NC(C)c4cccc(Br)c4)ccc3Sc3ccc(N)cc3)ncnc2n1 (configuration not stated) | – |
| 30 nM | 300 nM | Cc1ccccc1C(C)NC(=O)c1ccc(Sc2ccc(N)cc2)c(Nc2ncnc3nc(C(C)C)ccc23)c1 (configuration not stated) | – |
| 20 nM | 280 nM | CC(C)c1ccc2c(Nc3cc(C(=O)NC(C)c4ccccc4F)ccc3Sc3ccc(N)cc3)ncnc2n1 (configuration not stated) | – |
| 237 nM | 3030 nM | CC(C)c1ccc2c(Nc3cc(C(=O)N[C@H](CO)c4ccccc4)ccc3Sc3ccc(N)cc3)ncnc2n1 | – |
| 33 nM | 35 nM | CC[C@H](NC(=O)c1ccc(Sc2ccc(N)cc2)c(Nc2ncnc3nc(C(C)C)ccc23)c1)c1ccccc1 | – |
| 159 nM | 378 nM | CC(C)c1ccc2c(Nc3cc(C(=O)NC(C)c4cccs4)ccc3Sc3ccc(N)cc3)ncnc2n1 (configuration not stated) | – |
| 331 nM | 1170 nM | CC(C)c1ccc2c(Nc3cc(C(=O)NC(C)c4ccncc4)ccc3Sc3ccc(N)cc3)ncnc2n1 (configuration not stated) | – |
| 51 nM | 349 nM | CC(C)c1ccc2c(Nc3cc(C(=O)N[C@@H](C)c4ccccc4)ccc3Sc3ccc(NS(C)(=O)=O)cc3)ncnc2n1 | – |
| 120 nM | 690 nM | CC(C)c1ccc2c(Nc3cc(C(=O)N[C@@H](C)c4ccccc4)ccc3Sc3ccc(O)cc3)ncnc2n1 | – |
| 164 nM | 919 nM | CC(C)c1ccc2c(Nc3cc(C(=O)NC(C)c4ccccn4)ccc3Sc3ccc(N)cc3)ncnc2n1 (configuration not stated) | – |
| 242 nM | 1470 nM | CC(C)c1ccc2c(Nc3cc(C(=O)N[C@@H](CCO)c4ccccc4)ccc3Sc3ccc(N)cc3)ncnc2n1 | – |
| 600 nM | 1200 nM | Cc1ccc2c(Nc3cc(C(=O)N[C@@H](C)c4ccccc4)ccc3Sc3ccc(N)cc3)ncnc2n1 | – |
| 181 nM | 284 nM | CC(C)c1ccc2c(Nc3cc(C(=O)NC(C)(C)c4ccccc4)ccc3Sc3ccc(N)cc3)ncnc2n1 | – |
| 2 nM | 10 nM | CC(C)c1ccc2c(Nc3cc(C(=O)N[C@@H](C)c4ccc(F)cc4)ccc3Sc3ccc(N)cc3)ncnc2n1 | – |
| 6250 nM | 7890 nM | C[C@H](NC(=O)c1ccc(Sc2ccc(N)cc2)c(Nc2ncnc3ncccc23)c1)c1ccccc1 | – |
| 3 nM | 46 nM | C[C@H](NC(=O)c1ccc(Sc2ccc(N)cc2)c(Nc2ncnc3nc(C(C)(C)C)ccc23)c1)c1ccccc1 | – |

| SMILES | EC50 (Hepatitis C virus [1]) | EC50 (Hepatitis C virus [2]) | also measured |
| --- | --- | --- | --- |
| CC(C)c1ccc2c(Nc3cc(C(=O)N[C@@](C)(CO)c4ccccc4)ccc3Sc3ccc(N)cc3)ncnc2n1 | 2 nM | 188 nM | Activity (Hepatitis C virus [9]): inactive; Activity (Hepatitis C virus [10]): inactive; Activity (Hepatitis C virus [11]): inactive; Activity (Hepatitis C virus [12]): inactive; solubility [13]: 19.7 µM (≈ 11.1 µg/mL); half-life [14]: 4.1 h; FC (Hepatitis C virus [15]): 1.65; EC50 (Hepatitis C virus [16]): 34 nM; AUC [3]: 900 ng·h/mL; bioavailability [4]: 13.3%; half-life [5]: 2.7 h; Cmax [6]: 320 ng/mL; half-life [7]: 1.1 h; clearance [8]: 12.5 mL/min/kg |
